# Experimental data from US4505893A, “Purified plasminogen activator, process for its production and thrombolytic composition containing it” (Asahi Kasei Kogyo Kabushiki Kaisha, priority 1982, dated 1985).
# Square brackets hold non-standard residues; d marks the D form. Peptide text beside a SMILES is read from it. * marks the point of attachment. Sta = CC(C)C[C@H](N)[C@@H](O)CC(=O)O; Isovaleryl = CC(C)CC(=O)*
# Legend:
# [1] = target: urokinase (Homo sapiens, UniProt P00749); experiment: biochemical
# [2] = target: T1, substance of this invention (plasminogen activator) (Homo sapiens, UniProt P00750); experiment: biochemical
# T1 construct: endogenous in cells
# [3] = test system: plasminogen; experiment: Enhancement of activity with fibrin (plasminogen activation, Boc-Val-Leu-Lys-MCA); type: biochemical; settings: 5 U/ml (urokinase 5 IU/ml), 25° C. 1 hour, 10 μM aminomethylcoumarin = 100%
# [4] = Hydrolysis activity on various organic substrates; type: biochemical; settings: 37° C. 15 minutes, 1 μM aminomethylcoumarin = 100%, substance 100 U/ml, urokinase 120 IU/ml
# [5] = test system: fibrin; experiment: Affinity to fibrin (incorporation into formed fibrin); type: binding; settings: 500 U/ml (urokinase 500 IU/ml); plasminogen-free fibrinogen + thrombin, 1 hour at room temperature; extracted with 2M ammonium thiocyanate
# T1 sequence (P00750 36-562): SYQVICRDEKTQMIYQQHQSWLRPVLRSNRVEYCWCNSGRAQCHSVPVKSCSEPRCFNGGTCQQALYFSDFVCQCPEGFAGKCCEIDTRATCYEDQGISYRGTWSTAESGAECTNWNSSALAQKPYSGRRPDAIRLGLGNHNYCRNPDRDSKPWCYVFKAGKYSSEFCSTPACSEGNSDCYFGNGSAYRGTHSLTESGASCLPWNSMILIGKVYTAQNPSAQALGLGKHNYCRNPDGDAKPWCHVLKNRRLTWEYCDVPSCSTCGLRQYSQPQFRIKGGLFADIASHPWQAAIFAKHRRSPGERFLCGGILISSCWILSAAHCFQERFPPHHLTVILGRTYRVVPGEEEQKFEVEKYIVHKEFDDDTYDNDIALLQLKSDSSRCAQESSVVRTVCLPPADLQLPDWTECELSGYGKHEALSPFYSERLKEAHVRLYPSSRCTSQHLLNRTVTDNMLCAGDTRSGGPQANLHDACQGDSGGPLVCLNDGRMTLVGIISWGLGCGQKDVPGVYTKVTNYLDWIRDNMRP
compound,measurement,setting,value
CC(C)C[C@H](NC(=O)[C@@H](NC(=O)N[C@@H](Cc1ccccc1)C(=O)O)[C@@H]1CCN=C(N)N1)C(=O)N[C@H](C=O)Cc1ccccc1 [Chymostatin],IC50,[1],> 160 µM
same,IC50,[2],> 160 µM
CCOC(=O)c1ccc(OC(=O)CCCCCNC(=N)N)cc1 [FOY],IC50,[1],0.146 µM
same,IC50,[2],12.8 µM
urokinase,Hydrolysis Activity (%),[3]; fibrinogen added,5.9%
same,Hydrolysis Activity (%),[3]; fibrinogen not added,28%
same,Hydrolysis Activity (%),[4]; substrate Boc-Glu-Lys-Lys-MCA 0.1 mM,2.82%
same,Hydrolysis Activity (%),[4]; substrate Boc-Ileu-Glu-Gly-Arg-MCA 0.1 mM,3.30%
same,Hydrolysis Activity (%),[4]; substrate Boc-Phe-Ser-Arg-MCA 0.1 mM,48.9%
same,Hydrolysis Activity (%),[4]; substrate Glt-Gly-Arg-MCA 0.1 mM,314%
same,Hydrolysis Activity (%),[4]; substrate Pro-Phe-Arg-MCA 0.1 mM,3.89%
same,Hydrolysis Activity (%),[4]; substrate Z--Phe-Arg-MCA 0.1 mM,2.15%
same,proportion of the substance incorporated in the fibrin,[5],not incorporated in the fibrin at all
CC(=O)N[C@@H](CC(C)C)C(=O)N[C@@H](CC(C)C)C(=O)N[C@H](C=O)CCCNC(=N)N [Leupeptin],IC50,[1],80.7 µM
same,IC50,[2],47.5 µM
CC(C)CC(=O)N[C@H](C(=O)N[C@H](C(=O)N[C@@H](CC(C)C)[C@@H](O)CC(=O)N[C@@H](C)C(=O)N[C@@H](CC(C)C)[C@@H](O)CC(=O)O)C(C)C)C(C)C [Pepstatin] (Isovaleryl-VV[Sta]A[Sta]-OH),IC50,[1],> 100 µM
same,IC50,[2],> 100 µM
